Measurements reported in PubChem BioAssay (NCI).
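96-well plates; 48 h exposure; 5 concentrations. Endpoints by linear interpolation between flanking doses. Not reached: highest tested concentration assigned. GI50: concentration for 50% inhibition of growth. TGI marks complete inhibition of growth.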

Legend:
Assay in all cases: NCI anticancer screen, dose series, 48 h
UO-31 renal = test system: UO-31 renal
MOLT-4 leukemia = test system: MOLT-4 leukemia
ACHN renal = test system: ACHN renal
IGROV1 ovarian = test system: IGROV1 ovarian
SNB-75 CNS = test system: SNB-75 CNS
786-0 renal = test system: 786-0 renal
MCF7 breast = test system: MCF7 breast
MDA-MB-435 = test system: MDA-MB-435
HCC-2998 colon = test system: HCC-2998 colon
OVCAR-3 ovarian = test system: OVCAR-3 ovarian
SNB-19 CNS = test system: SNB-19 CNS
OVCAR-4 ovarian = test system: OVCAR-4 ovarian
HT29 colon = test system: HT29 colon
SF-539 CNS = test system: SF-539 CNS
SW-620 colon = test system: SW-620 colon
SK-MEL-28 melanoma = test system: SK-MEL-28 melanoma
SK-MEL-2 melanoma = test system: SK-MEL-2 melanoma
OVCAR-5 ovarian = test system: OVCAR-5 ovarian
MALME-3M melanoma = test system: MALME-3M melanoma
OVCAR-8 ovarian = test system: OVCAR-8 ovarian
U251 CNS = test system: U251 CNS
HS 578T breast = test system: HS 578T breast
A549 NSCLC = test system: A549 NSCLC
K-562 leukemia = test system: K-562 leukemia
RXF 393 renal = test system: RXF 393 renal
TK-10 renal = test system: TK-10 renal
SF-268 CNS = test system: SF-268 CNS
UACC-62 melanoma = test system: UACC-62 melanoma
DU-145 prostate = test system: DU-145 prostate
NCI-H460 lung = test system: NCI-H460 lung
KM12 colon = test system: KM12 colon
CAKI-1 renal = test system: CAKI-1 renal
NCI/ADR-RES ovarian = test system: NCI/ADR-RES ovarian
SF-295 CNS = test system: SF-295 CNS
A498 renal = test system: A498 renal
COLO 205 colon = test system: COLO 205 colon
NCI-H522 lung = test system: NCI-H522 lung
SK-MEL-5 melanoma = test system: SK-MEL-5 melanoma
SK-OV-3 ovarian = test system: SK-OV-3 ovarian
SN12C renal = test system: SN12C renal
HOP-62 NSCLC = test system: HOP-62 NSCLC
NCI-H23 lung = test system: NCI-H23 lung
T-47D breast = test system: T-47D breast
M14 melanoma = test system: M14 melanoma
HCT-116 colon = test system: HCT-116 colon
UACC-257 melanoma = test system: UACC-257 melanoma
CCRF-CEM leukemia = test system: CCRF-CEM leukemia
NCI-H226 lung = test system: NCI-H226 lung
MDA-MB-231 breast = test system: MDA-MB-231 breast
HL-60(TB) leukemia = test system: HL-60(TB) leukemia
RPMI-8226 leukemia = test system: RPMI-8226 leukemia
HCT-15 colon = test system: HCT-15 colon
PC-3 prostate = test system: PC-3 prostate
BT-549 breast = test system: BT-549 breast
HOP-92 NSCLC = test system: HOP-92 NSCLC
EKVX NSCLC = test system: EKVX NSCLC

Cn1cc(-c2cc3ncnc(Nc4ccc(NC(=O)Nc5cc(C(C)(C)C)on5)cc4)c3s2)cn1
GI50 (UO-31 renal): 320 nM
TGI (UO-31 renal): 9340 nM
GI50 (MOLT-4 leukemia): 397 nM
GI50 (ACHN renal): 348 nM
TGI (ACHN renal): 13200 nM
GI50 (IGROV1 ovarian): 363 nM
TGI (IGROV1 ovarian): 21300 nM
GI50 (SNB-75 CNS): 182 nM
TGI (SNB-75 CNS): 4430 nM
GI50 (786-0 renal): 720 nM
TGI (786-0 renal): 8390 nM
GI50 (MCF7 breast): 933 nM
TGI (MCF7 breast): 4860 nM
GI50 (MDA-MB-435): 600 nM
TGI (MDA-MB-435): 18100 nM
GI50 (HCC-2998 colon): 2500 nM
TGI (HCC-2998 colon): 11000 nM
GI50 (OVCAR-3 ovarian): 1970 nM
TGI (OVCAR-3 ovarian): 8440 nM
GI50 (SNB-19 CNS): 3740 nM
TGI (SNB-19 CNS): > 38300 nM
GI50 (OVCAR-4 ovarian): 619 nM
TGI (OVCAR-4 ovarian): > 56700 nM
GI50 (HT29 colon): 631 nM
TGI (HT29 colon): 3570 nM
GI50 (SF-539 CNS): 216 nM
TGI (SF-539 CNS): 1870 nM
GI50 (SW-620 colon): 994 nM
TGI (SW-620 colon): > 35600 nM
GI50 (SK-MEL-28 melanoma): 1060 nM
TGI (SK-MEL-28 melanoma): 10500 nM
GI50 (SK-MEL-2 melanoma): 390 nM
TGI (SK-MEL-2 melanoma): 2470 nM
GI50 (OVCAR-5 ovarian): 3490 nM
TGI (OVCAR-5 ovarian): 21000 nM
GI50 (MALME-3M melanoma): 348 nM
TGI (MALME-3M melanoma): 3760 nM
GI50 (OVCAR-8 ovarian): 864 nM
TGI (OVCAR-8 ovarian): > 100000 nM
GI50 (U251 CNS): 1450 nM
TGI (U251 CNS): > 40300 nM
GI50 (HS 578T breast): 400 nM
TGI (HS 578T breast): 6550 nM
GI50 (A549 NSCLC): 764 nM
TGI (A549 NSCLC): 39300 nM
GI50 (K-562 leukemia): 295 nM
TGI (K-562 leukemia): > 100000 nM
GI50 (RXF 393 renal): 307 nM
TGI (RXF 393 renal): 1550 nM
GI50 (TK-10 renal): 2980 nM
TGI (TK-10 renal): 17700 nM
GI50 (SF-268 CNS): 1360 nM
TGI (SF-268 CNS): > 37200 nM
GI50 (UACC-62 melanoma): 498 nM
TGI (UACC-62 melanoma): 8810 nM
GI50 (DU-145 prostate): 686 nM
TGI (DU-145 prostate): > 34900 nM
GI50 (NCI-H460 lung): 296 nM
TGI (NCI-H460 lung): 23800 nM
GI50 (KM12 colon): 35.1 nM
TGI (KM12 colon): 18200 nM
GI50 (CAKI-1 renal): 170 nM
TGI (CAKI-1 renal): 13900 nM
GI50 (NCI/ADR-RES ovarian): 2950 nM
TGI (NCI/ADR-RES ovarian): > 44500 nM
GI50 (SF-295 CNS): 552 nM
TGI (SF-295 CNS): 2220 nM
GI50 (A498 renal): 390 nM
TGI (A498 renal): 5170 nM
GI50 (COLO 205 colon): 436 nM
TGI (COLO 205 colon): 6420 nM
GI50 (NCI-H522 lung): 916 nM
TGI (NCI-H522 lung): 5150 nM
GI50 (SK-MEL-5 melanoma): 904 nM
TGI (SK-MEL-5 melanoma): 2860 nM
GI50 (SK-OV-3 ovarian): 314 nM
TGI (SK-OV-3 ovarian): 16300 nM
GI50 (SN12C renal): 379 nM
TGI (SN12C renal): 28900 nM
GI50 (HOP-62 NSCLC): 1870 nM
TGI (HOP-62 NSCLC): 35900 nM
GI50 (NCI-H23 lung): 764 nM
TGI (NCI-H23 lung): 6540 nM
GI50 (T-47D breast): 513 nM
TGI (T-47D breast): > 29000 nM
GI50 (M14 melanoma): 244 nM
TGI (M14 melanoma): 4270 nM
GI50 (HCT-116 colon): 377 nM
TGI (HCT-116 colon): 6160 nM
GI50 (UACC-257 melanoma): 2120 nM
TGI (UACC-257 melanoma): 14700 nM
GI50 (CCRF-CEM leukemia): 366 nM
TGI (CCRF-CEM leukemia): 2880 nM
GI50 (NCI-H226 lung): 517 nM
TGI (NCI-H226 lung): 19700 nM
GI50 (MDA-MB-231 breast): 1740 nM
TGI (MDA-MB-231 breast): 31700 nM
GI50 (HL-60(TB) leukemia): 1100 nM
TGI (HL-60(TB) leukemia): 3510 nM
GI50 (RPMI-8226 leukemia): 441 nM
TGI (RPMI-8226 leukemia): 2470 nM
GI50 (HCT-15 colon): 490 nM
TGI (HCT-15 colon): > 28500 nM
GI50 (PC-3 prostate): 791 nM
TGI (PC-3 prostate): 13700 nM
GI50 (BT-549 breast): 835 nM
TGI (BT-549 breast): 4370 nM
GI50 (HOP-92 NSCLC): 1560 nM
TGI (HOP-92 NSCLC): 14900 nM
GI50 (EKVX NSCLC): 1750 nM
TGI (EKVX NSCLC): 15000 nM
